A short description of data set [1]: Release of drug from hydrogel lens in contact with the cornea. In kind it is in vivo. The note with it: after 2 hours of contact with the cornea; lens with about 700 ng beclomethasone or 450 ng prednisolone. On the procedure:
In some embodiments, such as with classes of corticosteroids, a single hydrogel contact lens may be loaded with about […] of active compound. For instance, experiments have shown that an effective concentration of beclomethasone can be delivered to the posterior segment by treating with a lens that includes about 700 ng of the compound. […] In each case, about 95% of the drug exited the lens after 2 hours of contact with the cornea. It is believed that the consistent pore size of the hydrogels provides for a consistent delivery rate of a variety of compounds.

The conditions of data set [2]: rabbit, in vivo.
Description: A series of experiments were designed to determine the efficacy of delivery to the posterior segment from a hydrogel positioned on the cornea.
In the first experiment, rabbits were treated by placing hydrogel lenses on the corneas of the animals for a period of 3 hours. Each lens was infused with about 450 ng of prednisolone incorporated therein. The lenses were placed onto the eyes of anesthetized animals (closed eye period) for the three hour period after which time the lenses were removed. The procedure was repeated about every other day or every three days until 5 applications had been completed.
After completion of the five applications, each eye of the animal was analyzed for prednisolone concentration using LC/MS/MS. The portion of the posterior segment that was analyzed included macula, retina, surrounding muscle, nerve and circulatory, including connective tissues and cells. Sample size typically was about 800 mg. […] The limit of quantification for prednisolone was 0.5 ng/mL and for prednisone was 0.05 ng/mL.

For the compound `C[C@H]1C[C@H]2[C@@H]3CCC4=CC(=O)C=C[C@]4(C)[C@@]3(Cl)[C@@H](O)C[C@]2(C)[C@@]1(O)C(=O)CO` [Beclomethasone, beclomethasone], the “drug exited the lens” value in data set [1] is given as “about 95%”.
For the compound `C[C@]12C=CC(=O)C=C1CC[C@@H]1[C@@H]2[C@@H](O)C[C@@]2(C)[C@H]1CC[C@]2(O)C(=O)CO` [Prednisolone, prednisolone], the “drug exited the lens” value in data set [1] is recorded as “about 95%”. Further, the “average concentration in the posterior segment relative to the amount provided in the hydrogel lenses” value in data set [2] was “greater than 10%”.

The record behind these values is patent US9216106B2, “Device and method for the delivery of drugs for the treatment of posterior segment disease” (DIRECTCONTACT LLC, priority 2003, dated 2015).
